Reference: the supplement of paper PMC10784567
± gives the standard deviation of the averaged measurements.

compound: C=C1C[C@H]2C=Nc3cc(OCCCCCOc4cc5c(cc4OC)C(=O)N4CC(=C)C[C@H]4C=N5)c(OC)cc3C(=O)N2C1 [SG2057]; experiment: absolute IC50 (cell viability, CellTiter-Glo); higher = less potent; settings: treatment time: 3 days
Method: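 Large cancer cell line panel screens in 384-well plates. Cells were treated for 3 days with a 9-point dose titration of the free PBD dimer SG2057; viability was read with CellTiter-Glo. Absolute IC50 came from a four-parameter Hill fit normalised to the median of vehicle (DMSO) wells. Several independent screens (projects) per cell line are averaged; values in µM, lowest-dose floor about 1.524e-5 µM.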

Test System	absolute IC50
1624-17091 (Tumor B)	2.12 nM
NCI-H2135	5.6 nM
HCS-2	0.957 nM
4498-1636 Mel-nBR1	0.565 nM
SNU-449	5.84 nM
HCC4019	4.51 ± 2.9 nM
SNU-601	0.0897 ± 0.046 nM
SK-MEL-31	3.78 nM
A-427	0.831 nM
NCI-H2405	0.552 ± 0.38 nM
BICR 22	0.854 nM
COLO 824	0.192 nM
COLO 794	0.0985 ± 0.063 nM
SK-CO-1	0.201 ± 0.19 nM
CL-11	21.7 nM
NCI-N417	0.737 nM
SNU-638	0.137 ± 0.046 nM
MR1-3	0.256 nM
UM-RC-6	0.651 nM
ONCO-DG-1	1.36 ± 2.2 nM
HCC597	6.01 nM
SW 837	4.01 ± 0.21 nM
A549	0.926 ± 1.4 nM
MKN-7	1.67 nM
NCI-H1437	2.05 ± 2 nM

Test System	absolute IC50
KP-N-SI9s	0.0551 nM
KMS-28PE	0.0647 ± 0.036 nM
1624-17095 (Tumor C)	0.777 nM
Ishikawa	0.311 nM
OvCA 429	0.139 ± 0.067 nM
MCAS	0.42 ± 0.58 nM
NCI-H1581	0.852 ± 0.72 nM
SNU-182	1.36 ± 1.5 nM
BICR 10	0.421 nM
Panc 10.05	0.383 ± 0.11 nM
MKN-1	0.867 ± 1.1 nM
OV-90	2.13 ± 1.3 nM
Hs 895.T	7.53 nM
HEC-151	0.352 nM
NCI-H1703	0.36 ± 0.39 nM
KR7414	1.45 nM
1624-17095 (Tumor B)	5.51 nM
KYSE-270	0.409 nM
CoCM-1	13.5 nM
PA-1	0.0473 ± 0.056 nM
SNU-16	0.344 ± 0.1 nM
KPP14388 LN	0.49 nM
DMS 273	1.38 nM
VP229	3 ± 3.4 nM
TC-1	0.384 nM

Test System	absolute IC50
B16-F1	0.595 nM
COV362.4	4.61 ± 1.7 nM
NCI-H2461	0.545 ± 0.89 nM
KMS-11	0.761 ± 0.19 nM
KLM-1	1 ± 0.96 nM
4498-14745 Mel-BR3	0.39 nM
NCI-H2110	0.296 ± 0.18 nM
KPR3070	1.35 nM
KMS-21BM	0.26 ± 0.051 nM
OVCAR-5	1.08 ± 0.3 nM
KMS-34	0.272 ± 0.27 nM
S-117	2.29 nM
MOLP-8	0.212 ± 0.014 nM
HEC-88nu	3.07 nM
MC-38	0.186 nM
HLF	0.503 ± 0.72 nM
MAVER-1	0.0955 ± 0.065 nM
MOR	8.9 nM
TOV-21G	0.261 nM
NB-1	< 0.0152 nM
Detroit 562	1.79 ± 2.6 nM
NJG	0.151 nM
SU-DHL-6	0.536 ± 0.73 nM
HCC2885	0.801 nM
C2BBe1	7.31 ± 3.8 nM

Test System	absolute IC50
MDA-MB-453	3.21 ± 2.3 nM
RERF-LC-MS	0.212 ± 0.15 nM
JHH-6	3.4 nM
L-363	0.384 ± 0.54 nM
VMRC-LCD	4.27 nM
NCI-H2803	3.86 nM
KYSE-180	0.667 nM
DEOC-1	18.9 nM
COV434	0.188 ± 0.19 nM
UMC-11	14.8 nM
NCI-H1355	2.88 ± 3 nM
IGROV-1	1.14 ± 1.6 nM
Hs 839.T	6.79 nM
MDA-MB-468	0.353 ± 0.36 nM
NCI-H520	4.03 ± 2.5 nM
HMY-1	1.17 ± 0.94 nM
AsPC-1	5.12 ± 5.9 nM
SCLC-22H	0.905 nM
MDA-MB-435	1.76 ± 2.4 nM
CGTH-W-1	0.189 nM
HCC1428	6.01 ± 0.31 nM
UM-UC-1	0.557 nM
HT-29	2.89 ± 2 nM
RT-112	1.53 ± 2.8 nM
HUP-T4	1.09 ± 1.1 nM

Test System	absolute IC50
23132/87	1 ± 1.2 nM
OvCA 432	1.08 ± 0.64 nM
KARPAS-620	2.96 nM
H322T	2.68 ± 2.1 nM
KMS-12-PE	0.433 nM
RT4	2.35 nM
MMAc	0.868 nM
WSU-DLCL2	0.358 ± 0.36 nM
NCI-H196	2.69 nM
JJ012	6.35 nM
RL95-2	1.9 nM
HCC78	0.114 ± 0.099 nM
SUM 149PT	1.68 ± 1.6 nM
HT-115	1.59 ± 0.21 nM
RCM-1	3.33 ± 5.4 nM
NCI-H2722	0.343 nM
EPLC-272H	0.205 nM
KURAMOCHI	4.22 nM
EB-3	0.637 ± 0.85 nM
NUGC-4	0.443 nM
SBC-7	0.53 nM
COLO 206F	2.54 ± 2.5 nM
HCC44	0.762 ± 0.59 nM
